{"source": "patent US20090221642A1", "about": "“MUSCARINIC RECEPTOR AGONISTS, COMPOSITIONS, METHODS OF TREATMENT THEREOF, AND PROCESSES FOR PREPARATION THEREOF-176” (AstraZeneca AB, priority 2008, published 2009)", "data": [{"target": "T1, hM1 (human Muscarinic receptor subtype 1) (Homo sapiens, UniProt P11229)", "T1 construct": "expressed in transfected cells; host or cells: CHO cells (Chinese hamster ovary cells, ATCC)", "T1 sequence (P11229 1-460)": "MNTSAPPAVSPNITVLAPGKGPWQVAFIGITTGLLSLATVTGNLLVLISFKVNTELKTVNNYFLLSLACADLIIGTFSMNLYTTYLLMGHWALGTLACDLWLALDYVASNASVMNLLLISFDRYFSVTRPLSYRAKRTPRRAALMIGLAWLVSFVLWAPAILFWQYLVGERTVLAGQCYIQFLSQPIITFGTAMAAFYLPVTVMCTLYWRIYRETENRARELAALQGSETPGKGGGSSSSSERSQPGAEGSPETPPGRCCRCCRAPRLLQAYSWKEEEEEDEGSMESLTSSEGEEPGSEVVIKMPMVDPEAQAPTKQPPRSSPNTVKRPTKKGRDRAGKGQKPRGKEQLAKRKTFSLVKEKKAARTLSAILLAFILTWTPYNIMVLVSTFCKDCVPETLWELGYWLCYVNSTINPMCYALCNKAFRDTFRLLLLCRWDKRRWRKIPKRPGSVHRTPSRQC", "assay": "Human M1 calcium mobilization FLIPR assay", "assay_type": "cell-based", "conditions": "hM1 expressed in CHO cells, intracellular Ca2+ release, read-out: hM1 EC50", "procedure": "Human M1, rat M1, human M3 and human M5 Calcium Mobilization FLIPR™ Assay\nThe compound activity in the present invention (EC50 or IC50) is measured using a 384 plate-based imaging assay that monitors drug induced intracellular Ca^2+ release in whole cells. Activation of hM1 (human Muscarinic receptor subtype 1, gene bank access NM_000738), rM1 (rat Muscarinic receptor subtype 1, gene bank access NM_080773), hM3 (human Muscarinic receptor subtype 3, gene bank access NM_000740NM_000740) and hM5 (human Muscarinic receptor subtype 5, gene bank access NM_0121258), receptors expressed in CHO cells (Chinese hamster ovary cells, ATCC) is quantified in a Molecular Devices FLIPR II™ instrument as an increase in fluorescent signal. Inhibition of hM3 and hM5 by compounds is determined by the decrease in fluorescent signal in response to 2 nM acetylcholine activation.\nPrior to experiment, the cell culture medium is removed from the plates by inversion. […] Plates are incubated at 37° C. for 60 minutes prior to start the experiment. The incubation is terminated by washing the cells four times in assay buffer, leaving a residual 25 μl buffer per well. Cell plates are then transferred to the FLIPR, ready for compound additions.\nThe day of experiment, acetylcholine and compounds are diluted in assay buffer in three-fold concentration range (10 points serial dilution) for addition by FLIPR instrument. For all calcium assays, a baseline reading is taken for 10 seconds followed by the addition of 12.5 μl of compounds, resulting in a total well volume of 37.5 μl. Data is collected every second for 60 pictures and then every 6 seconds for 20 pictures prior to the addition of agonist. For hM3 and hM5, before agonist addition, a second baseline reading is taken for 10 seconds followed by the addition of 12.5 μl of agonist or buffer, producing a final volume of 50 μl. After agonist stimulation, the FLIPR continues to collect data every second for 60 pictures and then every 6 seconds for 20 pictures. The fluorescence emission is read using filter 1 (emission 510-570 nm) by the FLIPR on board CCD camera.\nCalcium mobilization output data are calculated as the maximal relative fluorescence unit (RFU) minus the minimal value for both compound and agonist reading frame (except for hM1 and rM1 using only the maximal RFU). Data are analyzed using sigmoidal fits of a non-linear curve-fitting program (XLfit version 4.2.2 Excel add-in version 4.2.2 build 18 math 1Q version 2.1.2 build 18). All pEC50 and plC50 values are reported as arithmetic means ±standard error of mean of ‘n’ independent experiments.", "units": {"EC50": "nM"}, "values": [{"smiles": "COC(=O)N1CCC(C)(N2CCC(n3c(=O)[nH]c4cc(F)ccc43)CC2)C1", "note": "(single isomer, unassigned) [Example 37, methyl 3-(4-(5-fluoro-2-oxo-2,3-dihydro-1H-benzo[d]imidazol-1-yl)piperidin-1-yl)-3-methylpyrrolidine-1-carboxylate]", "EC50": 76.5}, {"smiles": "COC(=O)N1CCC(C)(N2CCC(N3C(=O)Cc4c3cc(C)cc4C(C)(C)C)CC2)C1", "note": "(stereo not drawn) [Example 86, methyl 3-(4-(4-tert-butyl-6-methyl-2-oxoindolin-1-yl)piperidin-1-yl)-3-methylpyrrolidine-1-carboxylate]", "EC50": 1420}, {"smiles": "CC(C)OC(=O)N1CCC(C)(N2CCC(n3c(=O)[nH]c4ccc(F)cc43)CC2)C1", "note": "(single isomer, unassigned) [Example 66, isopropyl 3-(4-(6-fluoro-2-oxo-2,3-dihydro-1H-benzo[d]imidazol-1-yl)piperidin-1-yl)-3-methylpyrrolidine-1-carboxylate]", "EC50": 50.2}]}]}
